In patent US9145398B2, “Methods of treating CXCR4-expressing cancers” (University of Louisville Research Foundation, Inc., priority 2010, dated 2015):

What was measured:
MCF7 cells = test: MTT cell proliferation assay, MCF7; type: cell-based, human; conditions: 4 days
Experimental: (§1) To determine the potential for compounds to impact the proliferation of cells, cell growth was assessed capacity using the 3-(4,5-dimethylthiazol-2-yl)-2,5-diphenyltetrazolium bromide (MTT) assay. The effect of these compounds was determined for four cell lines: HS27, a “normal” fibroblast cell line; MCF7, an estrogen-dependant non-metastatic breast cancer cell line; MDA-MB-231, an estrogen-independent metastatic breast cancer cell line; and A549, a lung cancer cell line. Cells were left untreated, treated with 12.5 mM DMSO, or treated with varying concentrations of four compounds, (I-9, I-25, I-36, and I-37), then incubated for 4 days, before analysis. Absorbance at 490 nm represents proliferating cells. For samples using compounds, these values are normalized to untreated samples.

A549 cells = test: MTT cell proliferation assay, A549; type: cell-based, human; conditions: 4 days; for IC50: Homo sapiens, A549, 96 h
Experimental: as §1

HS27 cells = test: MTT cell proliferation assay, HS27; type: cell-based, human; conditions: 4 days, normal fibroblast cell line
Experimental: as §1

MDA-MB-231 cells = test: MTT cell proliferation assay, MDA-MB-231; type: cell-based, human; conditions: 4 days; for IC50: Homo sapiens, MDA-MB-231, 96 h
Experimental: as §1

BLT1 [1] = molecular target: T1, BLT1 (Homo sapiens, UniProt Q15722); test: Chemotaxis assay, cells expressing BLT1, LTB4; type: cell-based; conditions: 50 μM test compound, LTB4-induced
Experimental: (§2) Cells were suspended in chemotaxis buffer (RPMI 1640, 1% fetal bovine serum, 1 mM HEPES) at a concentration of 1×10^7 cells per ml. Cell chemotaxis was determined by examining the migration of the 300.19 cells in response to administration of 50 μM test compound plus an optimized concentration of CXCL12 using a chemotaxis assay that was previously described in Basu et al. (Basu et al., Critical role for polar residues in coupling leukotriene B4 binding to signal transduction in BLT1, J. Biol. Chem. (2007) Vol. 282, pp. 10005-17). 100 μL of 300.19 cells from the above cell suspension were placed in the upper chamber of a Transwell support (Corning Costar, Cambridge, Mass.) and were separated by a 5 micron filter from a bottom chamber containing 50 μM test compound plus the optimized concentration of CXCL12 in a final bottom chamber volume of 600 μl. After 3 h of incubation at 37° C. in 5% CO2, the upper chamber was removed and cells in the lower chamber were counted in a Bürker chamber. Cell counts for all samples were normalized to a CXCL12 plus DMSO control and results are reported using this normalized measure, referred to herein as the chemotaxis index. In some instances, the IC50 concentration (i.e., the concentration at which the chemotaxis index is reduced to 50% of the chemotaxis index of the CXCL12 plus DMSO control) of the test compounds was determined. All assays were performed a minimum of four times; error bars represent the standard deviation of the mean.
To examine specificity of some of the compounds for CXCR4, their activity was tested against a non-family member class A G protein-coupled receptor, BLT1. […] I-38 and I-43 inhibited BLT1-mediated chemotaxis (0.23) and (0.045) to about the same extent as CXCR4-mediated chemotaxis (0.21) and (0.064), respectively.

hCXCR4-GFP [2] = molecular target: T2, hCXCR4-GFP (Homo sapiens, UniProt P61073); test: Chemotaxis assay, hCXCR4-GFP expressing 300.19 cells, CXCL12; type: cell-based; conditions: for chemotaxis index (CXCR4-mediated): 50 μM test compound plus optimized CXCL12, normalized to CXCL12 plus DMSO control
Experimental: as §2

hCXCR4-GFP [3] = molecular target: T2, hCXCR4-GFP; test: Intracellular calcium mobilization assay, hCXCR4-GFP expressing 300.19 cells, CXCL12; type: cell-based; parameters: IC50 of intracellular calcium mobilization, CXCR4; other: CXCL12-mediated; other: 50 μM test compound; normalized Δ fluorescence (CXCR4, intracellular calcium mobilization); other: 50 μM test compound, 60 seconds pretreatm; conditions: CXCL12-mediated; read-out: IC50 of intracellular calcium mobilization, CXCR4
Experimental: (§3) Intracellular Calcium Mobilization Assay Method: The intracellular calcium mobilization assay used 300.19 cells which stably expressed hCXCR4-GFP, as described previously in Pello et al. (2008). Cells were loaded with INDO-I and then pretreated with the 50 μM of the test compound for 60 seconds prior to stimulation of intracellular calcium mobilization with an optimized concentration of CXCL12. […] The value Δ florescence is the difference between (a) the fluorescence ratio from cells before exposure to CXCL12 at its optimized concentration and (b) the fluorescence ratio from cells following stimulation with the optimized concentration of CXCL12. Decreases in Δ florescence correspond to decreases in intracellular calcium mobilization, and therefore, decreased signaling. As CXCL12 concentration was optimized for each test compound, results are presented as normalized Δ florescence which is Δ fluorescence divided by the fluorescence ratio of optimized CXCL12-only stimulation. In some instances, the IC50 concentration (concentration at which intracellular calcium mobilization is reduced to 50% of the Δ fluorescence of the CXCL12 plus DMSO control) of the test compounds was determined. All assays were performed a minimum of four times; error bars represent the standard deviation of the mean.

BLT1 [4] = molecular target: T1, BLT1; test: Intracellular calcium mobilization assay, cells expressing BLT1, LTB4; type: cell-based; conditions: LTB4-mediated
Experimental: as §3
At 50 μM test compound concentrations in BLT1-expressing cells, I-44 (0.040) and I-46 (0.017) inhibited intracellular calcium mobilization.

hCXCR4-GFP [5] = test: Chemotaxis assay, hCXCR4-GFP expressing 300.19 cells, CXCL12; type: cell-based, human; conditions: from chemotaxis indices at 50 μM
Experimental: as §2

300.19 cells = test: Cytotoxicity assay, propidium iodide based flow cytometry; type: cell-based; conditions: for cytotoxicity, percentage of cells staining positive for PI: 50 μM test compound; for cytotoxicity in dose response below 50 μM: 10 μM, 5 μM and 1 μM tested
Experimental: Cytotoxicity Assay Method: To determine the potential for test compound cytotoxicity to influence cell intracellular calcium mobilization and chemotaxis, cell cytotoxicity was assessed using propidium iodide (PI) based flow cytometry. Propidium iodine is impermeable to intact cell membranes and thus its lack of intercalation into DNA (which increases PI fluorescence) is a positive indicator of cell viability. Cytotoxicity values are presented as percentage of cells staining positive for PI. Lower values of fluorescence indicate less cytotoxicity. All assays were performed a minimum of four times; error bars represent the standard deviation of the mean.

hCXCR4-GFP [6] = test: Intracellular calcium mobilization assay, hCXCR4-GFP expressing 300.19 cells, CXCL12; type: cell-based, human; conditions: 50 μM test compound
Experimental: as §3

T2 sequence (P61073 whole entry): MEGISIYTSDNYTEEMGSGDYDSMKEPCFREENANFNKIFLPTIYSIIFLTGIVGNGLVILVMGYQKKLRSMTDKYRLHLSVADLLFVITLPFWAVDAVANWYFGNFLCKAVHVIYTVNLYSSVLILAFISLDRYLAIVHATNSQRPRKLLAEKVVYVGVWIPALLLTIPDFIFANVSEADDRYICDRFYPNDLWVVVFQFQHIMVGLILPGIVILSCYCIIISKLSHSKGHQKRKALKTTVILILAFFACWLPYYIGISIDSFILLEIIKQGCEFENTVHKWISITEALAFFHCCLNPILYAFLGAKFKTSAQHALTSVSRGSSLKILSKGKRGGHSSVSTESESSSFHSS
T1 sequence (Q15722 whole entry, species assumed): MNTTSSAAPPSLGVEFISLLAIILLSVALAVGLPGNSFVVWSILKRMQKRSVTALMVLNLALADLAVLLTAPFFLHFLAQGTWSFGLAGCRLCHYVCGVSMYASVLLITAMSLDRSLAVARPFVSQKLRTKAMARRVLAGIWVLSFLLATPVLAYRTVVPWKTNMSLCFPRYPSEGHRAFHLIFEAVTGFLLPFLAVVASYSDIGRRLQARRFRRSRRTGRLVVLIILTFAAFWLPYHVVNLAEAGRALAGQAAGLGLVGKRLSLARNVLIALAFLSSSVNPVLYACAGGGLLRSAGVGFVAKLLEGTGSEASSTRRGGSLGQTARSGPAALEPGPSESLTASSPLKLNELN

Row | SMILES | proliferation inhibition, MCF7 (in words) (MCF7 cells) | proliferation inhibition, A549 (in words) (A549 cells) | proliferation inhibition, HS27 (in words) (HS27 cells) | proliferation inhibition, MDA-MB-231 (in words) (MDA-MB-231 cells) | chemotaxis index (BLT1-mediated) (BLT1 [1]) | chemotaxis index (CXCR4-mediated) (hCXCR4-GFP [2]) | IC50 (hCXCR4-GFP [2]; hCXCR4-GFP 300.19 cells, CXCL12) [µM] | IC50 (hCXCR4-GFP [3]) [µM] | IC50 (A549 cells) [µM] | IC50 (BLT1 [4]) [µM] | fold greater inhibition of CXCR4-mediated than BLT1-mediated chemotaxis (hCXCR4-GFP [5]) [fold] | cytotoxicity, percentage of cells staining positive for PI (300.19 cells) [%] | cytotoxicity in dose response below 50 μM (300.19 cells) | IC50 (MDA-MB-231 cells) [µM] | difference between CXCR4- and BLT1-mediated intracellular calcium mobilization (hCXCR4-GFP [6]) | IC50 (MCF7 cells; Homo sapiens, MCF7, 96 h) [µM]
1 | Cc1ccc(NCC(=O)Nc2ncc(Cc3cccc(C(F)(F)F)c3)s2)cc1C [Compound I-37, 2-(3,4-dimethylphenyl)amino-N-[5-[[3-(trifluoromethyl)phenyl]methyl]thiazol-2-yl]-acetamide] | did not inhibit proliferation for any tested cell line | did not inhibit proliferation for any tested cell line | did not inhibit proliferation for any tested cell line | did not inhibit proliferation for any tested cell line |  |  |  |  |  |  |  |  |  |  |  | 
2 | CN1C/C(=C/c2cccnc2)C(=O)/C(=C/c2cccnc2)C1 [Compound I-43, (3E,5Z)-1-methyl-3,5-bis((pyridin-3-yl)methylene)piperidin-4-one] |  |  |  |  | 0.045 | 0.064 | 20 |  |  |  |  |  |  |  |  | 
3 | CN(C)c1cccc(Nc2nc3ccccc3nc2NS(=O)(=O)c2ccc([N+](=O)[O-])cc2)c1 [Compound I-25, N-[3-(3-dimethylaminophenyl)aminoquinoxalin-2-yl]-4-nitro-benzenesulfonamide] | only marginally inhibited cell proliferation of MCF7 cells at high concentrations |  | marginal proliferation inhibition at higher concentrations |  | 0.38 | 0.030 |  | 1 | 10 | 40 | 12 | 23.4 | no cytotoxicity beyond the initial 50 μM screening concentration | 10 |  | 
4 | COc1cc(NCCCC(C)Nc2ccnc3cc4ccccc4cc23)c2ncccc2c1 (stereo not drawn) [Compound I-9, N-(5-(6-methoxyquinolin-8-ylamino)pentan-2-yl)benzo[g]quinolin-4-amine] |  |  | consistently inhibited cell proliferation even at concentrations nearing 1 μM |  |  |  |  | 1 | 7.5 | 20 |  | 81.2 | no cytotoxicity beyond the initial 50 μM screening concentration | 5 | no significant difference | 5
